In patent US20100069297A1, “Selective Inhibition of TLR4 Signaling” (priority 2005, published 2010):
“Also recorded” adds a separate entry of the source. Ends that are not written are not given here.

Legend:
Type in all cases: cell-based, mouse
[1] = tested on: TLR4 signaling (LPS-induced phosphorylation of ERK, JNK, p38); test: LPS-stimulated activation of MAPKs (pERK, pJNK, pP38), Western blot; details: for effect on LPS-induced activation of ERK, cells preincubated with peptides only for 30 minutes: FIG. 5 and 7, 30 min preincubation; for effect on LPS-induced activation of ERK, cells preincubated with peptides only for 30 minutes / inhibition of LPS-induced activation of ERK / effect on LPS-induced activation (phosphorylation) of MAPKs (ERK, JNK): LPS 10 ng/ml; for effect on LPS-induced activation of p38 / inhibition of LPS-induced activation of ERK: 40 μM BP; for inhibition of phosphorylation of ERK whether or not 100-fold excess LPS was used: peptide increased from 10 μM to 40 μM, LPS 10 ng/nl or 1 μg/ml; for effect on LPS-induced activation (phosphorylation) of MAPKs (ERK, JNK): 40 μM, 1 h preincubation
Procedure: (§1) FIG. 2. Effect of blocking peptides on the LPS-stimulated activation of MAPKs and Tyr701 STAT-1. Ten μg of total protein was loaded per lane. A representative blot of three separate experiments is shown. Other details are given in the Materials and Methods section and legend for FIG. 1.
(§2) FIG. 4. Comparative effect of BPs on TLR2-vs. TLR4-mediated activation of MAPKs (A) and IL-1β mRNA expression (B). For Western blot analysis, 4.5 x10^6 primary macrophages were preincubated without or with 40 μM BP and stimulated for 30 min with LPS (10 ng/ml) or Pam3Cys (P3C; 150 ng/ml). The results shown are a representative blot of three separate experiments. Experimental details for FIG. 4B are the same as reported in the legend to FIG. 1A.
FIG. 5. Effect of mutated TRAM BB loop peptides on LPS-induced activation of ERK. Details of the experiment are as in legend for FIG. 4, except for the cells were preincubated with peptides only for 30 minutes.
(§3) SDS-PAGE and Western blot analysis were performed as described previously (Medvedev et al., 2001, J. Immunol. 167, 2257) with minor modifications. Antibodies for detection of activated MAPKs (pERK, pJNK and pP38) were purchased from Cell Signaling Technology (Beverly, Mass.). IRF-1 was detected using a rabbit polyclonal antibody from Santa-Cruz (Santa Cruz, Calif.). Antibody for detection of tyrosine-701 phosphorylated STAT1 was purchased from Zymed Laboratories (San Francisco, Calif.).
Using antibodies specific for the phosphorylated (activated) forms of JNK, ERK, and p38, we next sought to examine the effect of BB-loop-containing inhibitory peptides on LPS-stimulated activation of MAPKs. LPS induces quick and transient activation of MAPKs in primary macrophages (FIG. 2A) that was not affected by the addition of CP. […] The TIRAP BP was the weakest BP; all MAPKs were activated in the presence of it, although to a lesser extent when compared to CP.

[2] = tested on: TLR4 signaling (LPS-induced IL-1β, MIP-1β, IFN-β, RANTES mRNA); test: LPS-induced gene expression in primary murine macrophages, real-time PCR; details: for effect on induction of IL1-β and IFN-β mRNA (cytokine induction) by LPS: 30 min preincubation with peptide; for inhibitory effect on LPS-induced expression of IL-1β, MIP-1β, IFN-β and RANTES mRNA: 40 μM BP, 1 h preincubation, 10 ng/ml LPS, mRNA 1 h after LPS
Procedure: FIG. 1. Effect of blocking peptides on the cytokine induction by LPS. Thioglycollate-elicited primary murine macrophages were preincubated in the presence of 40 μMof BP for one hour before stimulation with 10 ng/ml of LPS. (A) Quantitative real-time PCR analysis of gene expression. (B) Secretion of IL-1β and IL-6. Concentration of the cytokines was measured after overnight incubation of the cells in the presence of LPS and the peptides. (C) Sensitivity of the LPS-stimulated expression of IFN-β and IL-1β mRNA to varying concentrations of TRAM and MyD88 BP. Total mRNA was isolated 1 hour after LPS stimulation (A and C). *p<0.05; **p<0.01.
FIG. 6. Effect of mutant TRAM BB loop peptides on LPS-induced activation of IL1-β and IFN-β mRNA. Details of the experiments are as described in the legend for FIG. 1, except for the cells were preincubated with peptides only for 30 minutes.
C3H/OuJ mice were purchased from the Jackson Laboratory (Bar Harbor, Me.). Thioglycollate-elicited peritoneal macrophages were harvested and cultured in the presence of E. coli K235 LPS or Pam3Cys as described previously (Salkowski et al., 1999, J. Immunol. 164, 1529).
(§4) Total cellular RNA was extracted from macrophage cultures as described elsewhere and reversed transcribed using AMV Reverse Transcriptase (Promega, Madison, Wis.) and poly-T priming as recommended by the manufacturer. The resulting cDNA was quantified by real time PCR using SYBR Green PCR Master Mix (Applied Biosystems) and ABI Prism 7900HT cycler. Primers for detection of IL-1β, IFN-β, MIP-1β, […]RANTES, and HPRT mRNAs were designed using the Primer Express 2.0 program (Applied Biosystems). Relative gene expression was calculated using ΔCt method with HPRT as a housekeeping gene (1.8̂(CtHPRT−CtGene)) Statistical analysis was performed by one way ANOVA with repeated measures, followed by Dunnett's multiple comparison post hoc test with p≦0.05 chosen as the level of significance.
Mice with targeted mutations in MyD88 (Kawai et al., 2001, supra; Toshchakov et al., 2002, supra) or TIRAP (Yamamoto et al., 2002, Nature 420, 324) retain the capacity to signal through the MyD88-independent pathway. […] Therefore, the first question we sought to address experimentally is whether interactions of the BB-loops of the TIR domains of these adapters affect protein interactions leading to gene expression. To this end, we designed cell permeable peptides whose sequences correspond to the BB-loops of each adapter molecule and measured the ability of each BP to interfere with the induction of immediate response genes induced via MyD88-dependent and independent pathways. […] All BB-loop-containing peptides exerted an inhibitory effect on LPS-induced expression of MyD88-dependent IL-1β and […], as well as MyD88-independent IFN-β and RANTES mRNA, as measured by real-time PCR (FIG. 1A).

[3] = tested on: TLR2 signaling (Pam3Cys-induced IL-1β mRNA); test: Pam3Cys-induced cytokine mRNA expression, real-time PCR
Procedure: as §2, §4
Similar to their effect on activation of MAPKs, BPs were much weaker inhibitors with respect to Pam3Cys- vs. LPS-induced expression of IL-1β mRNA.

[4] = tested on: TLR2 signaling (Pam3Cys-induced phosphorylation of ERK, JNK, p38); test: Pam3Cys-induced activation of MAPKs, Western blot; details: for effect on P3C-induced activation of p38 / effect on P3C-induced activation (phosphorylation) of ERK: 40 μM; for effect on P3C-induced activation (phosphorylation) of ERK: P3C 150 ng/ml
Procedure: as §2, §3
Apart from the use of a CP, we sought to analyze further the specificity of the inhibitory effects of BB-loop peptides on TLR signaling. Therefore, we also tested the effect of the peptides on signal transduction elicited from TLR2.

[5] = tested on: TLR4 signaling (IRF-1 protein); test: LPS-induced upregulation of IRF-1 protein, SDS-PAGE/Western; details: 100 ng/ml LPS, 1.5 h
Procedure: (§5) FIG. 3. Effect of blocking peptides on activation of IRF-3 and IRF-1. […] Primary mouse macrophages were stimulated with 100 ng/ml of LPS. Seventeen μg of total protein was loaded per lane of the native gel. Other details are as described in the legend for FIG. 1.
as §3
Importantly, MyD88 knockout macrophages are capable of inducing IRF-1 mRNA (Yamamoto et al., 2003, supra).

[6] = tested on: TLR4 signaling (LPS-induced STAT-1 phosphorylation); test: LPS-induced phosphorylation of STAT-1, Western blot; details: 40 μM BP
Procedure: as §1, §3

[7] = tested on: TLR4 signaling (IRF-3 dimerization); test: LPS-induced dimerization of IRF-3, native PAGE; details: 100 ng/ml LPS, 1.5 hr
Procedure: as §5
Native PAGE for detection of IRF-3 activation was performed with minor modifications (Iwamura et al., 2001, Genes Cells 6, 375). One×10^7 thioglycollate-elicited cells were plated into a 6 cm dish and washed with PBS to remove non-adherent cells. Primary macrophages were stimulated with 100 ng/ml of LPS for 1.5 hr and lysed in buffer containing 50 mM TRIS-HCl pH 7.5, 150 mM NaCl, 1 mM EDTA, 1% NP-40, 1 mM sodium orthovanadate and 1× Complete protease inhibitor cocktail (Roche, Mannheim, Germany). Lysates were mixed with native lysis buffer (Bio-Rad, Hercules, Calif.) supplemented with 1% deoxycholate. Fifteen to 20 μg protein per lane was electrophoresed on a non-reducing gel and immunoblotted. IRF-3 dimers and monomers were detected using rabbit anti-IRF-3 antibody (Zymed Laboratories) by Western analysis.
Interferon Regulatory Factors (IRFs) were first identified as important transcriptional mediators of the antiviral immune response (reviewed in Taniguchi et al., 2001, Annu. Rev. Immunol. 19, 623). Later, it was recognized that this family of transcription factors plays an essential role in signal transduction mediated by different TLRs. IRF-1 is regulated transcriptionally by signaling from different TLRs, as well as by cytokines induced by TLR engagement (e.g., IL-1, TNF, and IFN-β) (Fujita et al., 1989, Proc. Natl. Acad. Sci. USA 86, 9936). In contrast, IRF-3 is constitutively expressed in many cell types (Au et al., 1995, Proc. Natl. Acad. Sci. USA 92, 11675). Upon stimulation through TLR4 or TLR3, IRF-3 is phosphorylated at multiple sites in its C-terminus, and this modification enables it to dimerize and translocate to the nucleus where it targets IRF-3-responsive genes (Kawai et al., 2001, supra; Lin et al., 1999, Mol. Cell. Biol. 19, 2465).

[8] = listed as Antennapedia DD loop peptide

Row | Sequence | effect on induction of IL1-β and IFN-β mRNA (cytokine induction) by LPS [2] | inhibition of phosphorylation of ERK whether or not 100-fold excess LPS was used [1] | effect on P3C-induced cytokine induction [3] | effect on LPS-induced activation (phosphorylation) of MAPKs (ERK, JNK) [1] | effect on LPS-induced upregulation of IRF-1 protein [5] | inhibition of LPS-induced Tyr701 phosphorylation of STAT-1 [6] | inhibitory effect on LPS-induced expression of IL-1β, MIP-1β, IFN-β and RANTES mRNA [2] | inhibition of LPS-induced dimerization of IRF-3 [7] | further results
1 | IVFAAMPCGRLHLQ [E/A mutant] | did not affect considerably inhibitory capacity |  |  |  |  |  |  |  | effect on LPS-induced activation of ERK, cells preincubated with peptides only for 30 minutes [1]: did not affect considerably inhibitory capacity
2 | RQIKIWFQNRRMKWKKLHKRDFVPGKWIID [TLR2-BP] | inhibitory | effectively inhibited | inhibitory |  |  |  |  |  | effect on LPS-induced activation of p38 [1]: did not inhibit; inhibition of LPS-induced activation of ERK ([1]; listed as TLR2 BB peptide): potent inhibitors; also recorded: inhibit; effect on P3C-induced activation of p38 [4]: did not inhibit; effect on P3C-induced activation (phosphorylation) of ERK ([4]; listed as TLR2 BB peptide): diminished and delayed; also recorded: to some extent
3 | RQIKIWFQNRRMKWKKLHYRDFIPGVAIAA [TLR4-BP] | inhibitory | effectively inhibited | inhibitory |  |  |  |  |  | effect on LPS-induced activation of p38 [1]: did not inhibit; inhibition of LPS-induced activation of ERK ([1]; listed as TLR4 BB peptide): potent inhibitors; also recorded: inhibit; effect on P3C-induced activation of p38 [4]: did not inhibit; effect on P3C-induced activation (phosphorylation) of ERK ([4]; listed as TLR4 BB peptide): to a lesser extend; also recorded: to some extent
4 | RQIKIWFQNRRMKWKKLHERNFVPGKSIVE (TLR1/6 blocking peptide) [TLR1/6-BP] |  |  |  | affected neither |  |  |  |  | inhibition of Pam3Cys-induced phosphorylation of MAPKs ([4]; 40 μM BP, Pam3Cys 150 ng/ml, 30 min): affected neither
5 | RQIKIWFQNRRMKWKKLQLRDAAPGGAIVS (TIRAP blocking peptide) [TIRAP-BP] |  |  |  | weakest BP | weakest | did not completely block | consistently weakest | inhibition was not as complete | 
6 | RQIKIWFQNRRMKWKKIVFAEMPCGRLHLQ [TRAM-BP] |  | effectively inhibited |  | strongly blocked | strongest inhibitors | strongly inhibited | strongest | significantly inhibited | 
7 | RQIKIWFQNRRMKWKKSLHGRGDPMEAFII (Control peptide - BLAST generated) [reference compound] |  |  |  | not affected | strong upregulation |  | not significantly affected |  | effect on Pam3Cys-induced expression of IL-1β mRNA ([3]; 40 μM, Pam3Cys): not significantly affected
8 | RQIKIWFONRRMKWKKFCEEFQVPGRGELH (RQIKIWFQNRRMKWKKFCEEFQVPGRGELH; TRIF blocking peptide) [TRIF-BP] |  |  |  | strongly inhibited | intermediate efficacy | strongly inhibited |  | significantly inhibited | inhibition of LPS-induced activation of ERK [1]: incomplete
9 | KYKAMKKDFPSILR [MyD88 DD loop peptide] | not inhibitory |  | not inhibitory |  |  |  |  |  | effect on LPS-induced activation of ERK, cells preincubated with peptides only for 30 minutes [1]: not inhibitory; effect on LPS-induced activation of ERK, cells preincubated with peptides only for 30 minutes [1, 8]: does not inhibit; effect on P3C-induced activation (phosphorylation) of ERK [4]: not inhibitory; effect on P3C-induced activation (phosphorylation) of ERK [4, 8]: does not inhibit
